Where two headings read alike, the source gives them in different places.
Experiments:
[1] = Relaxivity measurements (T1 and T2 relaxation times, Bruker minispec mq60/mq20); type: physicochemical; conditions: aqueous solution, 37° C.
Experimental: T1 and T2 relaxation times were measured at the STTARR Innovation Centre in Toronto, Canada using a Bruker minispec mq60, and at the Bruker Showroom in Milton, Canada using a Bruker minispec mq20. Measurements were carried out on a series of 6 aqueous dilutions between 0-5 mM.
The T1 and T2 relaxation times of the 8 soluble, pure complexes were measured in aqueous solution at 37° C., at both 20 and 60 MHz.

[2] = tested on: primary rat renal proximal tubule epithelial cells (RPTECs); assay: In vitro toxicity, MTT assay; type: cell-based; conditions: for IC50: rat RPTECs, MTT, read-out: Inhibitory concentration IC50; for cytotoxicity: 10 h time point, compared with 4 h
Experimental: Gadodiamide (Selleckchem, Lot #02) was used as the reference compound. It is one of the 8 Gd(III)-based MRI agents approved for use in Canada (trade name: Omniscan™).
The test articles and reference compound were weighed and dissolved in the incubation medium to give the highest test concentration of 30 mM. The solution was filter sterilized and diluted to the remaining test concentrations of 10 mM, 3.3 mM, 1.1 mM, 0.36 mM, 0.12 mM and 0.04 mM.
Cryopreserved primary rat renal proximal tubule epithelial cells (RPTECs) (ScienCell Research Laboratories, Carlsbad, Calif.) were used for the study. The rat RPTECs were thawed completely at 37° C., and transferred to epithelial cell medium (ScienCell Research Laboratories, Carlsbad, Calif.) followed by plating in poly-L-lysine coated 96-well plates. The RPTECs were allowed to recover and grow in a cell culture incubator (37° C., humidified atmosphere of 5% carbon dioxide and 95% air) for 3 additional days with a medium change every alternate day.
Following 3 days of plating, the RPTECs were washed once with serum free epithelial cell medium (ScienCell Research Laboratories, Carlsbad, Calif.) followed by treatment with the test, reference or control articles for 2, 4, 10 or 24 h. All treatments were performed in triplicate.
Cellular viability and metabolic activity were assessed by using the 3-(4,5-dimethylthiazol-2-yl)-2,5-diphenyl tetrazolium bromide (MTT) uptake assay. A 10× stock of the MTT dye was prepared in phosphate buffered saline (PBS). An aliquot of dye was added 2 hrs before the intended time point to achieve a final 1× concentration, after which incubation (37° C., humidified atmosphere of 5% carbon dioxide and 95% air) continued until the desired time point. For the 2 hr time point, the aliquot of dye was added immediately after the test articles. Following incubation, all media was aspirated from the wells and the plates were allowed to dry. The resulting formazan crystals were dissolved in DMSO using an orbital shaker, and the absorbance at 570 nm was measured using a Victor ^3V multilabel plate reader (reference wavelength=650 nm).
The inhibitory concentration (IC50, the concentration resulting in 50% toxicity) was determined by plotting log concentration vs. relative viability, followed by non-linear regression of the curve using Graph Pad Prism 5.0.
An in vitro toxicity study was performed in order to evaluate the cytotoxic potential of several of the agents in primary rat renal proximal tubule epithelial cells (RPTECs), prior to performing in vivo studies. The Mn^II and Gd^III complexes of L1, L2 and L6 (complexes 1, 2, 5, and 7-9) were evaluated at seven concentrations (30 mM, 10 mM, 3.3 mM, 1.1 mM, 0.36 mM, 0.12 mM and 0.04 mM) after 2, 4, 10 and 24 hours of treatment in rat RPTECs. The MTT assay was used as an indicator of viability. The nephrotoxic potential of the test articles was compared to the toxicity observed in the presence of the approved agent Gadodiamide. The results are summarized in Table 4, where the inhibitory concentration (IC50, the concentration resulting in 50% toxicity) was determined by plotting log concentration vs. relative viability.

male Sprague-Dawley rats = assay: In vivo acute toxicity; set-up: species or system rat
Experimental: Compound 1 (aq., 12.5 mM) was injected intravenously into 4 male rats (Sprague Dawley Crl:SD, 315-340 g) at a dosage of 0.02 mmol/kg following anaesthesia with 5% isoflurane. […] Body weight measurements and hematology were performed on days −1, 7 and 14. Compound 6 (aq., 6.25 mM) was injected intravenously into 8 male rats (Sprague Dawley Crl:SD, 327-365 g) at a dosage of 0.01 mmol/kg following anaesthesia with 5% isoflurane. […] Body weight measurements and hematology were performed on days −1, 1 and 8. Following euthanasia, the heart, lungs, liver, kidneys, spleen, thyroid and pituitary glands were grossly examined during necropsy, and samples of the brain, heart (compound 1 only), lungs, liver, kidneys, spleen and thymus (compound 1 only) were microscopically evaluated during histopathological examination.
The acute toxicities of 1 and 6 were studied in 8 week old male Sprague-Dawley rats. The toxicity of 1 was studied over a period of 14 days, in four rats; while the toxicity of 6 was studied over a period of 8 days, in 8 rats. Compound 1 was injected intravenously at a dosage of 0.02 mmol/kg (c=12.5 mM), while 6 was injected at a dosage of 0.01 mmol/kg (c=6.25 mM). These dosages were chosen because the dosage for the only Mn^II-based compound approved in North America, Teslascan, was 0.005 mmol/kg; and the inventors were anticipating a […] degree of toxicity.

SMILES | r1 relaxivity ([1]; 20 MHz) | r1 relaxivity ([1]; 60 MHz) | IC50 ([2]; 2 hr treatment) | IC50 ([2]; 4 hr treatment) | IC50 ([2]; 10 hr treatment) | cytotoxicity [2] | IC50 ([2]; 24 hr treatment) | acute toxicity (overall) (male Sprague-Dawley rats; 0.02 mmol/kg iv, 4 rats, 14 days) | toxicity (summary of the in vivo studies) (male Sprague-Dawley rats; at the studied dosages) | nephrotoxicity ([2]; 2 and 4 h of treatment, 0.04-30 mM) | nephrotoxic effects ([2]; 24 h of treatment)
CC1=NCCOCCOCCN=C(C)c2cccc1n2.O.O.[Cl-].[Cl-].[Mn+2] [Compound 2, [MnL2Cl2].2H2O] | 3.58 s⁻¹ mM⁻¹ | 2.78 s⁻¹ mM⁻¹ | 3.88 mM | 2.56 mM | 14.7 mM | exhibited a slight reduction in toxicity | 0.68 mM |  |  |  | 
CC1=NCCNCCNCCN=C(C)c2cccc1n2.O.O.[Cl-].[Cl-].[Mn+2] [Compound 1, [MnL1Cl2].2H2O] | 3.78 s⁻¹ mM⁻¹ | 2.76 s⁻¹ mM⁻¹ |  |  |  | did not display significant cytotoxicity | 5.47 mM | minimally- to non-acutely toxic | negligible toxicity | did not show significant nephrotoxicity | exhibiting the least nephrotoxic effects

Source: US10377783B2, “Methods and compounds for enhancing contrast in magnetic resonance imaging (MRI)” (priority 2015, dated 2019)
